Patent publication US20170372030A9, “METHOD AND APPARATUS FOR COMPUTER MODELING OF THE INTERACTION BETWEEN AND AMONG CORTICAL AND SUBCORTICAL AREAS IN THE HUMAN BRAIN FOR THE PURPOSE OF PREDICTING THE EFFECT OF DRUGS IN PSYCHIATRIC AND COGNITIVE DISEASES” (priority 2005, published 2017)
Like-named read-outs stand apart in the source and are kept apart here.

Legend:
[1] = target: receptors of the 5HT1 class; details: read-out: high-affinity binding for serotonin; cited from earlier work
[2] = test system: fast Na+ channel, persistent Na+ channel, L-type Ca++ channel; details: saturating dose of 5HT (1 μM); cited from earlier work
5HT-Transporter = 5HT-Transporter (Homo sapiens, UniProt P31645); details: read-out: Km of 5HT-Transporter; cited from earlier work
Sequence of 5HT-Transporter (P31645 whole entry): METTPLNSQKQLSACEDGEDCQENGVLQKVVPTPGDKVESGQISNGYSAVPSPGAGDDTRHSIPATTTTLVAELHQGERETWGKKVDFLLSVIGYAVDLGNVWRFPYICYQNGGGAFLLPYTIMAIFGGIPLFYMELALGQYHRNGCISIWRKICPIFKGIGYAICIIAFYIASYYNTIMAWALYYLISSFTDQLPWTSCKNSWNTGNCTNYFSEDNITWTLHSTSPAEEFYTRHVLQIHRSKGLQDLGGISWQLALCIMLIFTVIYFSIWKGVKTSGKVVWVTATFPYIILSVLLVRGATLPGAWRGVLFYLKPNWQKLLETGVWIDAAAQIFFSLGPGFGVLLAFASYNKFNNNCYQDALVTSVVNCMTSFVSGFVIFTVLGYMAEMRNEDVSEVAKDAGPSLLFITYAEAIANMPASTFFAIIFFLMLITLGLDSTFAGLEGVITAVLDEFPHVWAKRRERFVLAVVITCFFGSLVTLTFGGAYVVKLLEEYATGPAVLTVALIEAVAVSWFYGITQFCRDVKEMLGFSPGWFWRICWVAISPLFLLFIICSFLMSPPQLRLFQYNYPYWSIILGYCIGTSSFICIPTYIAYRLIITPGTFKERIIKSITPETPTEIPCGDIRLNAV

5HT1b/d autoreceptor = details: cited from earlier work; for decrease of free 5HT: maximal stimulation of 5HT1b/d autoreceptor
alpha 1-adrenoreceptor [3] = details: normal rat brain in vivo, cited from earlier work
α2 adrenergic receptors = details: full stimulation of α2 receptors; cited from earlier work
α2-R = details: read-out: Ki for NE at the α2-R; cited from earlier work
[4] = test system: Norepinephrine Transporter (NET); details: rat jejunum, cited from earlier work
D2-R [5] = target: T1, D2-R (Homo sapiens, UniProt P14416); assay: Drug and tracer binding affinity and on/off rates at the D2-R (Table 1); details: calculated as kon × Kd
T1 sequence (P14416 whole entry): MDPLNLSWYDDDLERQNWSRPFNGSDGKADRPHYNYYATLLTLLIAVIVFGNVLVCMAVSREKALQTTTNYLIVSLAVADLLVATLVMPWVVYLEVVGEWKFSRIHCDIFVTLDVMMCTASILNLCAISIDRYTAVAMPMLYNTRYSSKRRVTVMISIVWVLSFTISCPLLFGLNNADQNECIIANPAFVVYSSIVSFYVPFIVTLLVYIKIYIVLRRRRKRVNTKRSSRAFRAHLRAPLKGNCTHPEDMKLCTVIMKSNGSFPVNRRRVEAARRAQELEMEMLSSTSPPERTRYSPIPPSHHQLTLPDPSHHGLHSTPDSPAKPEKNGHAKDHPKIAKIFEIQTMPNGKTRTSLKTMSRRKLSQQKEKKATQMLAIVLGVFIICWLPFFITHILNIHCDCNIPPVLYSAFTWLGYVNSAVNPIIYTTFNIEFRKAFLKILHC

D2-R [6] = target: T1, D2-R; details: cited from earlier work
alpha 1-adrenoreceptor [7] = details: nonspiking regions, human cortical membranes; read-out: affinity; cited from earlier work
5HT2C receptor = target: T2, 5HT2C receptor (Rattus norvegicus, UniProt P08909); details: microdialysis, maximal effect; cited from earlier work
T2 construct: from tissue; host or cells: brain in vivo (microdialysis), value quoted from the literature
T2 sequence (P08909 33-460): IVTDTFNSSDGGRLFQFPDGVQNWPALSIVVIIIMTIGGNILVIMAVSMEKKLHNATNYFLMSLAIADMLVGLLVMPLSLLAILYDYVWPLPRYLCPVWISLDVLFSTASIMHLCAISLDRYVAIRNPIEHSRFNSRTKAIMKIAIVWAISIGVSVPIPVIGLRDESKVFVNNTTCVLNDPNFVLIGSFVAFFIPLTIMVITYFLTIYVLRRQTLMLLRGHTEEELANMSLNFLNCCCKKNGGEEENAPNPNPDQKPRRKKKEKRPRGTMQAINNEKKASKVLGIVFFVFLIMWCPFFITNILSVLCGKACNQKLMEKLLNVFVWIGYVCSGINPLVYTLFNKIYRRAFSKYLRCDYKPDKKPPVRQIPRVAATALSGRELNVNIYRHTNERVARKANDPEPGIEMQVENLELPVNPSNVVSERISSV

NET = target: T3, NET (Rattus norvegicus, UniProt Q63380); details: blocking the NET; cited from earlier work
T3 construct: from tissue
T3 sequence (Q63380 1-617): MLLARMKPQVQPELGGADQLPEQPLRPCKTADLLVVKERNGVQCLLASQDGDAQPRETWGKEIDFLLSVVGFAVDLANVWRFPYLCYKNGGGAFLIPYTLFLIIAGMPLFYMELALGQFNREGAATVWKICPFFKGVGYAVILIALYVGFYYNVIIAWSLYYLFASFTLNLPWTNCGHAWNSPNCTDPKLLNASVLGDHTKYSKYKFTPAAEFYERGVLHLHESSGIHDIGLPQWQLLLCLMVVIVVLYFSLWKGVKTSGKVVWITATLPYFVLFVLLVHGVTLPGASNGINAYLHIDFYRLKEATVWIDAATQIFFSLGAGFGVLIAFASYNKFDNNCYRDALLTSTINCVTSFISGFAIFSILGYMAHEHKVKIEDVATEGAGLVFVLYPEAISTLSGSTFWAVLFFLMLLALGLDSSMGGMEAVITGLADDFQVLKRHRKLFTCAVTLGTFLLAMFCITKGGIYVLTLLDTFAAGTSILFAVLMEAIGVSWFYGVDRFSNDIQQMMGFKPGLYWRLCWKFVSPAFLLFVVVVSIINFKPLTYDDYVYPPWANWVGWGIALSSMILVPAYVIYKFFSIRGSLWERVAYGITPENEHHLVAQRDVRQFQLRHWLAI

NCCc1c[nH]c2ccc(O)cc12 [5HT, serotonin]
Kd [1]: ~15 nM
decrease of maximum conductance of fast Na+, persistent Na+ and L-type Ca++ channel [2]: 20%
Km (5HT-Transporter): 0.34 µM

CN1CCC[C@@H]1Cc1c[nH]c2ccc(Nc3ncccc3[N+](=O)[O-])cc12 [CP135,807]
decrease of free 5HT (5HT1b/d autoreceptor): 45%

O=C1c2ccccc2CCC1CNCCc1ccc(O)c(I)c1 (stereo not drawn) [[^125I]HEAT, [^125I]iodo-2-[beta-(4-hydroxyphenyl)ethylaminomethyl]]
Kd (alpha 1-adrenoreceptor [3]; read-out: Kd (half-saturation constant), high-affinity site): 3.6 nM
Kd (alpha 1-adrenoreceptor [3]; read-out: Kd, low-affinity site): 668 nM

Clc1cccc(Cl)c1N=C1NCCN1 [clonidine]
reduction of 5HT firing (and subsequent PFC 5HT release) (α2 adrenergic receptors): 45%

CC(C)NCC(O)COc1ccccc1-n1cccc1 (stereo not drawn) [isamoltane]
increase of free 5HT (5HT1b/d autoreceptor; maximal block of 5HT1b/d autoreceptor): 50%

NC[C@H](O)c1ccc(O)c(O)c1 [norepinephrine]
Ki (α2-R): 996 nM
Km ([4]; read-out: Km, low-affinity component (uptake 2)): 111 µM
Km ([4]; read-out: Michaelis constant (Km), high-affinity component (uptake 1)): 1.72 µM

CCN1CCC[C@H]1CNC(=O)c1c(OC)ccc(I)c1O [IBZM]
Koff (D2-R [5]): 0.0176 s⁻¹
Kd (D2-R [6]; tracer, read-out: affinity of tracer for the D2-R): 160 nM

COc1cc2nc(N3CCN(C(=O)c4ccco4)CC3)nc(N)c2cc1OC [[^3H]prazosin, prazosin]
Kd (alpha 1-adrenoreceptor [7]): 0.17 nM

Cc1nc2n(c(=O)c1CCN1CCC(c3noc4cc(F)ccc34)CC1)CCCC2O (stereo not drawn) [Paliperidone]
Kd (D2-R [6]; at the D2-R, read-out: Kd): 4.1 nM

C[C@H](N)Cn1ccc2cc(F)c(Cl)cc21 [Ro-60-0175]
maximal reduction of free DA (5HT2C receptor): 30%

COc1ccc(C(CN(C)C)C2(O)CCCCC2)cc1 (stereo not drawn) [venlafaxine]
NE increase in cortex (NET): 498%

O=c1ccc2[nH]cc(C3=CCNCC3)c2[nH]1 [CP93,129]
decrease of free 5HT (5HT1b/d autoreceptor): 45%
